The source of these data is US9663460B2, “Sulfur derivatives as chemokine receptor modulators” (ALLERGAN, INC., priority 2010, dated 2017).

Each structure is given as a SMILES string.

Chain of CCR2 (P41597 whole entry, species assumed): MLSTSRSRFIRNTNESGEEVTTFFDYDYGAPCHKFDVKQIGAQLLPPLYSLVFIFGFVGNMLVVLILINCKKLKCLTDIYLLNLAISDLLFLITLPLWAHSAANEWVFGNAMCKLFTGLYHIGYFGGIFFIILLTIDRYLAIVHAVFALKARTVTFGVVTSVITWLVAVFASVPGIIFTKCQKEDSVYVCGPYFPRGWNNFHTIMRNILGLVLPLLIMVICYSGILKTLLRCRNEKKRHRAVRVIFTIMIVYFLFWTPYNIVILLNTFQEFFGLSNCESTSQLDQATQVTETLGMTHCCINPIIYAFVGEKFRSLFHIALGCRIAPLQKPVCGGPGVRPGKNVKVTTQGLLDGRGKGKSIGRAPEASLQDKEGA

The target in this assay is CCR2 (Homo sapiens (Human), UniProt P41597). Kind of assay: Calcium activity assayed on the FLIPR Tetra in HEK-Gqi5 cells stably expressing CCR2. In kind it is cell-based. Conditions: FLIPR Tetra calcium assay. Here is the method:
HEK-Gqi5 cells stably expressing CCR2 were cultured in (DMEM high glucose, 10% FBS, 1% PSA, 400 μg/ml geneticin and 50 μg/ml hygromycin. Appropriate positive control chemokines (MCP-1, MIP1A or RANTES) was used as the positive control agonist for screening compound-induced calcium activity assayed on the FLIPR^Tetra. The drug plates were prepared in 384-well microplates using the EP3 and the MuItiPROBE robotic liquid handling systems. Compounds were synthesized and tested for CCR^2 activity.
For orientation: IC50 means the concentration needed to halve the response being measured. For the compound `O=S(=O)(Nc1cc(Cl)ccc1[S+]([O-])Cc1cccnc1)c1ccc(Cl)c(C(F)(F)F)c1` (centres unmarked) [4-chloro-N-{5-chloro-2-[(pyridin-3-ylmethyl)sulfinyl]phenyl}-3-(trifluoromethyl)benzenesulfonamide], the “CCR2 % ANTAGONISM” value came to 97% and the half-inhibitory concentration (IC50) amounted to 112 nM.
Take `Cc1ccc(S(=O)(=O)Nc2cc(Cl)ccc2S(C)(=O)=O)o1` [N-[5-chloro-2-(methylsulfonyl)phenyl]-5-methylfuran-2-sulfonamide]: the “CCR2 % ANTAGONISM” value is 90% and the IC50 is 990 nM.
As for `O=S(=O)(Nc1cc(Cl)ccc1[S+]([O-])Cc1c[nH]cn1)c1cc2ccccc2o1` (centres unmarked) [N-{5-chloro-2-[(1H-imidazol-4-ylmethyl)sulfinyl]phenyl}-1-benzofuran-2-sulfonamide], the “CCR2 % ANTAGONISM” value came to 108% and the IC50 came out at 296 nM.
`Cc1ccc(S(=O)(=O)Nc2cc(Cl)ccc2S(C)(=O)=O)cc1[N+](=O)[O-]` [N-[5-chloro-2-(methylsulfonyl)phenyl]-4-methyl-3-nitrobenzenesulfonamide]: the “CCR2 % ANTAGONISM” value stood at 89% and the IC50 is 207 nM.
For `O=S(=O)(Nc1cc(Cl)ccc1[S+]([O-])CCc1ccccn1)c1cc2ccccc2o1` (centres unmarked) [N-{5-chloro-2-[(2-pyridin-2-ylethyl)sulfinyl]phenyl}-1-benzofuran-2-sulfonamide], the “CCR2 % ANTAGONISM” value amounted to 86% and the IC50 amounted to 153 nM.
Consider `Nc1cccc(CS(=O)(=O)c2ccc(Cl)cc2NS(=O)(=O)c2cc3ccccc3o2)[n+]1[O-]` [N-(2-{[(6-amino-1-oxidopyridin-2-yl)methyl]sulfonyl}-5-chlorophenyl)-1-benzofuran-2-sulfonamide], for which the “CCR2 % ANTAGONISM” value is 95% and the half-inhibitory concentration (IC50) came out at 264 nM.
With `Nc1cccc(CS(=O)(=O)c2ccc(Cl)cc2NS(=O)(=O)c2cc3ccccc3o2)c1` [N-{2-[(3-aminobenzypsulfonyl]-5-chlorophenyl}-1-benzofuran-2-sulfonamide], the “CCR2 % ANTAGONISM” value came out at 90% and the half-maximal inhibitory concentration (IC50) turned out to be 23 nM.
`O=S(=O)(Nc1cc(Cl)ccc1SCCc1cn[nH]c1)c1cc2ccccc2o1` [N-(5-chloro-2-{[2-(1H-pyrazol-4-yl)ethyl]thio}phenyl)-1-benzofuran-2-sulfonamide]: the “CCR2 % ANTAGONISM” value is reported as 91% and the 50% inhibitory concentration (IC50) worked out at 412 nM.
On the same counts, the results for `Nc1cccc(CS(=O)(=O)c2ccc(Cl)cc2NS(=O)(=O)c2cccc(Cl)c2)c1` [N-{2-[(3-aminobenzypsulfonyl]-5-chlorophenyl}-3-chlorobenzenesulfonamide] are 91% and 246 nM.
On to `COc1cccc(CSc2ccc(Cl)cc2NS(=O)(=O)c2cc3ccccc3o2)c1` [N-{5-chloro-2-[(3-methoxybenzyl)thio]phenyl}-1-benzofuran-2-sulfonamide], for which the “CCR2 % ANTAGONISM” value amounted to 85% and the IC50 was 651 nM.
Turning to `C[S+]([O-])c1ccc(Cl)cc1NS(=O)(=O)c1cc2ccccc2o1` (centres unmarked) [N-[5-chloro-2-(methylsulfinyl)phenyl]-1-benzofuran-2-sulfonamide], the “CCR2 % ANTAGONISM” value is on record as 98% and the IC50 worked out at 11 nM.
Take `C[S+]([O-])c1ccc(Cl)cc1NS(=O)(=O)c1cccs1` (centres unmarked) [N-[5-chloro-2-(methylsulfinyl)phenyl]thiophene-2-sulfonamide]: the “CCR2 % ANTAGONISM” value was determined as 53% and the concentration for half-maximal inhibition (IC50) amounted to 1110 nM.
`CSc1ccc(Cl)cc1NS(=O)(=O)c1ccc(Cl)c(C)c1` [4-chloro-N-[5-chloro-2-(methylthio)phenyl]-3-methylbenzenesulfonamide]: the “CCR2 % ANTAGONISM” value was found to be 93% and the IC50 turned out to be 453 nM.
As for `CS(=O)(=O)c1ccc(Cl)cc1NS(=O)(=O)c1ccc(Br)cc1` [4-bromo-N-[5-chloro-2-(methylsulfonyl)phenyl]benzenesulfonamide], the “CCR2 % ANTAGONISM” value is 84% and the IC50 came to 403 nM.
In the case of `CS(=O)(=O)c1ccc(Cl)cc1NS(=O)(=O)c1ccc(Cl)cc1` [4-chloro-N-[5-chloro-2-(methylsulfonyl)phenyl]benzenesulfonamide], the “CCR2 % ANTAGONISM” value stood at 98% and the IC50 worked out at 155 nM.
In the case of `O=S(=O)(Nc1cc(Cl)ccc1[S+]([O-])Cc1c[nH]cn1)c1ccc(Cl)c(C(F)(F)F)c1` (centres unmarked) [4-chloro-N-{5-chloro-2-[(1H-imidazol-4-ylmethyl)sulfinyl]phenyl}-3-(trifluoromethyl)benzenesulfonamide], the “CCR2 % ANTAGONISM” value was determined as 111% and the half-inhibitory concentration (IC50) was 158 nM.
For the compound `Cc1n[nH]c(C)c1CCS(=O)(=O)c1ccc(Cl)cc1NS(=O)(=O)c1cc2ccccc2o1` [N-(5-chloro-2-{[2-(3,5-dimethyl-1H-pyrazol-4-yl)ethyl]sulfonyl}phenyl)-1-benzofuran-2-sulfonamide], the “CCR2 % ANTAGONISM” value is recorded as 96% and the concentration for half-maximal inhibition (IC50) came to 1090 nM.
Regarding `Nc1ccccc1CSc1ccc(Cl)cc1NS(=O)(=O)c1cc2ccccc2o1` [N-{2-[(2-aminobenzyl)thio]-5-chlorophenyl}-1-benzofuran-2-sulfonamide], the “CCR2 % ANTAGONISM” value was 91% and the concentration for half-maximal inhibition (IC50) stood at 100 nM.
`O=S(=O)(Nc1cc(Cl)ccc1SCc1ncccn1)c1cc2ccccc2o1` [N-{5-chloro-2-[(pyrimidin-2-ylmethyl)thio]phenyl}-1-benzofuran-2-sulfonamide]: the “CCR2 % ANTAGONISM” value worked out at 100% and the half-maximal inhibitory concentration (IC50) stood at 549 nM.
In the same order, the values of `NC(=O)CC[S+]([O-])c1ccc(Cl)cc1NS(=O)(=O)c1ccc(Cl)c(C(F)(F)F)c1` (centres unmarked) [3-{[4-chloro-2-({[4-chloro-3-(trifluoromethyl)phenyl]sulfonyl}amino)phenyl]sulfinyl}propanamide] are 99% and 797 nM.
In the case of `CN(C)C(=O)CCS(=O)(=O)c1ccc(Cl)cc1NS(=O)(=O)c1cc2ccccc2o1` [3-({2-[(1-benzofuran-2-ylsulfonyl)amino]-4-chlorophenyl}sulfonyl)-N,N-dimethylpropanamide], the “CCR2 % ANTAGONISM” value was found to be 99% and the half-maximal inhibitory concentration (IC50) was 76 nM.
Turning to `O=C1NCC(C[S+]([O-])c2ccc(Cl)cc2NS(=O)(=O)c2cc3ccccc3o2)O1` (centres unmarked) [N-(5-chloro-2-{[(2-oxo-1,3-oxazolidin-5-yl)methyl]sulfinyl}phenyl)-1-benzofuran-2-sulfonamide], the “CCR2 % ANTAGONISM” value is reported as 79% and the half-maximal inhibitory concentration (IC50) worked out at 2130 nM.
In the same order, the values of `O=S(=O)(Nc1cc(Cl)ccc1[S+]([O-])Cc1cccnc1)c1cc2ccccc2o1` (centres unmarked) [N-{5-chloro-2-[(pyridin-3-ylmethyl)sulfinyl]phenyl}-1-benzofuran-2-sulfonamide] are 100% and 76 nM.
On the same counts, the results for `CSc1ccc(Cl)cc1NS(=O)(=O)c1ccc(C(F)(F)F)c([N+](=O)[O-])c1` [N-[5-chloro-2-(methylthio)phenyl]-3-nitro-4-(trifluoromethyl)benzenesulfonamide] are 90% and 491 nM.
Consider `O=S(=O)(Nc1cc(Cl)ccc1[S+]([O-])Cc1ccc[n+]([O-])c1)c1cc2ccccc2o1` (centres unmarked) [N-(5-chloro-2-{[(1-oxidopyridin-3-yl)methyl]sulfinyl}phenyl)-1-benzofuran-2-sulfonamide], for which the “CCR2 % ANTAGONISM” value is reported as 101% and the 50% inhibitory concentration (IC50) amounted to 646 nM.
